Consider 5 compounds from ChEMBL document CHEMBL1201862, “PubChem BioAssay data set” (2004).

Where “and” joins values, the source holds several entries; their conditions need not be identical. Equal entries are not always repeated.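 Assay format: 96-well plates, 48-hour exposure. At the GI50, growth is halved.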 Calls of active or inactive are those of the source. Cut-off read from the data, not from the text of the source: active = GI50 up to about 1.1 µM and inactive = higher. A value given as a limit tells only on which side of the number the result lay.

Test systems include NCI-H226; SK-OV-3; CAKI-1; SK-MEL-2; SK-MEL-5; SF-268; SF-295; CCRF-CEM; TK-10; A498; HCT-15; K562; SN12C; M14; LOX IMVI; RXF 393; HOP-62.
Assay in all cases: NCI-60 cell line screen, 48 h

For `N=C(N)n1ncc(Cl)c(Cl)c1=O`, the GI50 is 5.25 µM (inactive) with NCI-H226; 17.9 µM (inactive) in the assay on SK-OV-3; 1.81 µM (inactive) with CAKI-1; 2.47 µM (inactive) in the assay on SK-MEL-2; 4.39 µM (inactive) in the assay with SK-MEL-5; 3.11 µM (inactive) in the assay with SF-268. The GI50 in the assay on SF-295 was 10.8 µM (inactive); with CCRF-CEM, 2.15 µM (inactive); in the assay with TK-10 it was 19.4 µM (inactive); with A498, 18.6 µM (inactive); in the assay on HCT-15, 1.87 µM; in the assay on K562, 2.32 µM (inactive). Also, the values for the GI50 with SN12C and in the assay with M14 were 2.69 µM (inactive) and 1.98 µM (inactive), respectively.

For `CC1(C)CC(=O)C(=[N+]=[N-])C(=O)C1`, the GI50 in the assay on LOX IMVI, in the assay with NCI-H226, with RXF 393, in the assay on SK-OV-3, with CAKI-1 and in the assay with SK-MEL-2 was > 100 µM (inactive) in each case. For the same compound, the GI50 in the assay on HOP-62 is > 100 µM (inactive); in the assay with SF-268, > 100 µM (inactive); in the assay on SF-295 it was > 100 µM (inactive); with CCRF-CEM, > 100 µM (inactive); in the assay with TK-10, > 100 µM (inactive); in the assay on HCT-15, > 100 µM. In addition, the GI50 in the assay with K562, in the assay on SN12C and in the assay on M14 was > 100 µM (inactive) throughout.

With `NCCCNCCSSC/C=C\CSSCCNCCCN`, the GI50 in the assay with LOX IMVI was 45.2 µM (inactive) and 43.3 µM (inactive); with SK-OV-3, > 100 µM (inactive); with CAKI-1, 36.1 µM (inactive) and 38.5 µM (inactive); in the assay on SK-MEL-2, 50.1 µM (inactive); in the assay on SK-MEL-5 it was 41.1 µM (inactive) and 62.1 µM (inactive); in the assay with SF-268, > 100 µM (inactive) and 57.8 µM (inactive). For the same compound, the GI50 in the assay with CCRF-CEM was 3.75 µM (inactive) and 4.3 µM (inactive); in the assay with TK-10, > 100 µM (inactive) and 60.3 µM (inactive); in the assay on A498, > 100 µM (inactive); with HCT-15, > 100 µM and 63.7 µM; in the assay on K562 it was 19.2 µM (inactive) and 18.4 µM (inactive); in the assay on SN12C, 75.7 µM (inactive) and 44.4 µM (inactive). The GI50 in the assay with M14 is 34 µM (inactive) and 49 µM (inactive).

Take `O=C(CCC(=O)C1Cc2ccccc2C1=O)Nc1cccc(C(F)(F)F)c1` (centres undefined): the GI50 in the assay with LOX IMVI, with NCI-H226, in the assay on RXF 393, in the assay with SK-OV-3, with CAKI-1 and in the assay with SK-MEL-2 was > 100 µM (inactive) each time. Also, the GI50 with HOP-62, in the assay on SK-MEL-5, in the assay on SF-268, in the assay on SF-295, in the assay with CCRF-CEM and in the assay on TK-10 was > 100 µM (inactive) in each case. Moreover, the GI50 is > 100 µM in the assay on HCT-15, > 100 µM (inactive) with K562, > 100 µM (inactive) in the assay on SN12C and > 100 µM (inactive) in the assay on M14.

As to `O=C(Nc1ccc(Cl)c(Cl)c1)C1C(=O)N(c2ccc(Cl)c(Cl)c2)C(=O)/C1=N\O` (centres undefined), the GI50 was 24.5 µM (inactive) in the assay on LOX IMVI; 50.5 µM (inactive) in the assay on NCI-H226; > 100 µM (inactive) with SK-OV-3; > 100 µM (inactive) in the assay with CAKI-1; > 100 µM (inactive) in the assay with SK-MEL-2; > 100 µM (inactive) in the assay on HOP-62. For the same compound, the GI50 with SK-MEL-5 is > 100 µM (inactive); with SF-268 it was > 100 µM (inactive); in the assay on SF-295 it was 73.5 µM (inactive); with CCRF-CEM, 42.1 µM (inactive); in the assay with TK-10, > 100 µM (inactive); in the assay on A498, > 100 µM (inactive). In addition, the GI50 with HCT-15 was > 100 µM; in the assay with K562, 16.9 µM (inactive); in the assay with SN12C, 61.8 µM (inactive); with M14, 22.9 µM (inactive).
